# Data as given in patent publication US20090274626A1, “TARGETING TNF-alpha CONVERTING ENZYME(TACE)- DEPENDENT GROWTH FACTOR SHEDDING IN CANCER THERAPY” (The Regents of the University of California, priority 2005, published 2009).
# Entries after “also recorded” stand apart in the source; their conditions may differ.
# Tests used:
# T4-2 cells [1] = assay: Relative proliferation of T4-2 cells with AG 1478 with or without TAPI-2 (sensitization, FIG. 5); type: cell-based, human; settings: 0.01 μM AG 1478 alone
# Protocol: FIG. 5. […] T4-2 cells were allowed to adhere to 48 well plates. Drugs were added at the indicated concentrations. Conditions were analyzed in triplicate. For comparison, all data were normalized to the 100%.
# (FIG. 5) In this experiment, T4-2 cells were allowed to adhere to 48 well plates. Drugs, AG 1478 and TAPI-2, were added at various concentrations of 0.001 μM, 0.01 μM, 0.1 μM, 1 μM, 10 μM and 100 μM. Conditions were analyzed in triplicate. For comparison, all data were normalized to the 100%.
# T4-2 cells [2] = assay: 3D culture of T4-2 cells in 80 nM AG1478 with various amounts of EGF; type: cell-based, human; settings: 80 nM AG1478, four days
# Protocol: It was shown that increasing amounts of the EGFR ligand, EGF, attenuates T4-2 cells response to 80 nM of AG 1478. Cells were cultured for four days in 80 nM AG1478 and various amounts of EGF. Above a threshold EGF concentration between 0.1-1 ng/ml ([…]), the EGFR inhibitor can no longer revert the malignant phenotype. Thus, reversion of T4-2 cells by EGFR inhibition is overcome by the presence of picomolar amounts of EGFR ligand.
# [3] = system: T4-2 cells expressing AREGΔTM; assay: 3D culture of T4-2 cells expressing soluble AREG (AREGΔTM): colony size and morphology; type: cell-based, human; settings: AG1478-treated AREGΔTM vs proAREG colonies, P<0.0001
# Protocol: (§1) For 3D lrECM culture, T4-2 cells were seeded at 21000 cells per cm^2 on top of Matrigel, overlaid with H14 medium containing 5% Matrigel (BD Biosciences, San Jose, Calif.), and treated with 80 nM AG1478, 20 μM TAPI-2 or the relevant vehicle controls.
# (§2) Amphotropic retroviruses were generated by transfection (Lipofectamine; Invitrogen, Carlsbad, Calif.) of the Phoenix packaging cell line (a gift of Dr. Gary Nolan, Stanford) with pBM-IRES-Puro or derivatives containing the AREG or TGFα open reading frames. Two million phoenix cells per 6 cm dish were plated the day prior to transfection and transfected with 2 μg of the appropriate retroviral construct. Retrovirus-containing culture medium was harvested after 48 hrs, supplemented with polybrene to 5 μg/ml and added to HMT3522 cells at 30-50% confluence. Pools of stable infectants were selected in 1 μg/ml puromycin.
# (§3) Cloning of pro-AREG and pro-TGFα. The open reading frames of these genes were amplified by PCR from T4-2 cDNA. […]
# (§4) Quantitation of colony size in the 3D lrECM culture was performed by image analysis. […] The high resolution digital images were then analyzed using NIH Image analysis software and the cross-sectional area of each colony was determined for many colonies. This process was hand-curated to ensure that aggregates of colonies were not measured as a single colony.
# [4] = system: T4-2 cells expressing TGFαΔTM; assay: 3D culture of T4-2 cells expressing soluble TGFα (TGFαΔTM): colony size and morphology; type: cell-based, human; settings: AG1478-treated TGFαΔTM vs proTGFα colonies, P<0.05
# Protocol: as §1, §2, §3, §4
# T4-2 cells [5] = assay: 3D lrECM (Matrigel) culture of T4-2 cells: reversion of malignant phenotype, polarity, colony size; type: cell-based, human
# Protocol: as §1
# Silencer™ siRNAs against TACE (Ambion, Austin, Tex.) were also transfected in according to the Reverse Transfection protocol of Invitrogen. siRNAs against the following TACE sense strand sequences were transfected either individually (100 nM) or as a pool (33.3 nM each): […]tt (SEQ ID NO: 2), GCAGCAt[…]tt (SEQ ID NO:3) and […]tt (SEQ ID NO: 4). For 3D culture assays, T4-2 cells were trypsinized post-transfection and plated as single cells in Matrigel. Knockdown was assessed by western blot from a parallel transfection 48 hrs post-transfection. Random siRNA sequence was used as a negative control.
# Indirect immunofluorescence. Colonies were solubilized from […] culture by shaking in PBS/0.05M EDTA on ice for 30 mins, fixed in 4% paraformaldehyde, permeabilized, stained with anti-α6-integrin (Chemicon, Temecula, Calif.) and counterstained with DAPI.
# Quantitation of colony size in the 3D lrECM culture was performed by image analysis. Representative images were captured using a digital camera attached to a phase contrast microscope. The high resolution digital images were then analyzed using NIH Image analysis software and the cross-sectional area of each colony was determined for many colonies. This process was hand-curated to ensure that aggregates of colonies were not measured as a single colony.
# [6] = system: patients with advanced pancreatic adenocarcinoma; settings: cited from earlier work
# NSCLC = settings: single agent in NSCLC; cited from earlier work
# [7] = system: non-small cell lung cancer (NSCLC) patients; settings: two large trials, chemotherapy with Gefitinib; cited from earlier work
# MAPK = MAPK activation in S1 cells by conditioned medium from T4-2 cells; type: cell-based, human; settings: pre-incubation of S1 cells with inhibitor
# Protocol: Western blotting. Cells were lysed in 50 mM Tris.HCl pH 7.5, 150 mM NaCl, 0.5% NP40 supplemented with protease and phosphatase inhibitors (Calbiochem, San Diego, Calif.) and clarified by centrifugation. 50 μg of each sample was fractionated by SDS-PAGE, transferred to nitrocellulose membranes and probed with antibodies against the following proteins: phospho-MAPK, Total MAPK, phospho-p70S6-Kinase, (Cell Signaling Technology, MA). E-cadherin (BD Biosciences, CA) was used as a loading control. Blots were developed using Supersignal West Femto (Pierce, Rockland, Ill.). Images were captured using a Fluor Chem 8900 imager (Alpha Innotech, San Leandro, Calif.).
# T4-2 cells [8] = assay: T4-2 cell proliferation with Gefitinib in absence or presence of TGFα; type: cell-based, human; settings: Gefitinib 0 nM, 0.3 nM and 3 nM
# Protocol: Control cells were cultured in the absence of TGFα and cells were cultured in the presence of TGFα. Both the control cells and cells grown with TGFα were also cultured with various amounts of Gefitinib at 0 nM, 0.3 nM and 3 nM.
# [9] = target: transmembrane precursor of Amphiregulin (pro-AREG) (human (cloned from T4-2 human breast cell cDNA)) (UniProt P15514); assay: cell-based or functional assay
# S1 cells = assay: S1 cell proliferation with recombinant EGFR ligands; type: cell-based, human; settings: recombinant ligand equimolar to EGF (860 μM)
# Protocol: Cell culture All reagents were purchased from SIGMA (St. Louis, Mo.) except where otherwise noted. HMT3522 cells were cultivated on 2D and 3D substrata in H14 medium, a 50:50 mix of DMEM/F12 (UCSF Cell culture Facility, San Francisco, Calif.) supplemented with 5 μg/ml prolactin, 250 ng/ml insulin, 1.4×10^−6 M hydrocortisone, 10^−10 M β-estradiol, 2.6 ng/ml sodium selenite and 10 μg/ml transferrin. S1 cells were additionally supplemented with 10 ng/ml EGF. In various experiments, cells were supplemented with AREG, TACE, TGFα. In all cases, AREG and TGFα were used at the same molar concentration as EGF ([…]).
# Proliferation assays. HMT3522 cells were seeded in 96 well plates and treated (in triplicate) as described in the figure legends. To determine relative growth, 0.1 volumes of WST cell proliferation analysis reagent (Roche, Indianapolis, Ind.) was added to the medium and its formazan metabolite was measured by absorbance at 460 nm.
molecule,measurement,setting,value
COc1cc2ncnc(Nc3cccc(Cl)c3)c2cc1OC [AG1478],"reduction in proliferation, EGFR inhibitor alone",T4-2 cells [1],no reduction in proliferation
same,threshold EGF concentration above which the EGFR inhibitor can no longer revert the malignant phenotype,T4-2 cells [2]; 3D culture,0.1 to 1 ng/mL
same,threshold EGF concentration above which the EGFR inhibitor can no longer revert the malignant phenotype,T4-2 cells [2]; molar equivalent,8.6 to 86 pM
same,colony size in presence of the EGFR inhibitor,[3],consistently larger than those formed by cells infected with either empty vector or with the membrane-tethered pro-forms
same,colony size in presence of the EGFR inhibitor,[4],consistently larger than those formed by cells infected with either empty vector or with the membrane-tethered pro-forms
same,colony size (cross-sectional area) vs vehicle,"T4-2 cells [5]; 3D culture, four days, p<0.001",significantly smaller than those formed by cells treated with vehicle alone; also recorded: significantly different from controls
same,reversion of the malignant phenotype of T4-2 cells,"T4-2 cells [5]; 3D lrECM culture, 80 nM AG1478 or 20 μM TAPI-2 vs vehicle",reversion of the malignant phenotype; also recorded: may be reverted
C#Cc1cccc(Nc2ncnc3cc(OCCOC)c(OCCOC)cc23)c1 [Erlotinib],median extension in progression-free survival,[6]; added to gemcitabine,six
same,median increase in overall survival,[6]; added to gemcitabine,14 days
same,survival benefit,[6],statistically significant survival benefit
same,increase in median progression-free survival time,NSCLC,two
COc1cc2ncnc(Nc3ccc(F)c(Cl)c3)c2cc1OCCCN1CCOCC1 [Gefitinib],survival vs chemotherapy alone,[7],no better than chemotherapy alone
same,activation of MAPK in S1 cells by T4-2 conditioned medium,MAPK,suppressed
same,effect of added TGFα on sensitivity of T4-2 cells to Gefitinib (cell proliferation),T4-2 cells [8],reduced the effectiveness
"TACE/ADAM17 expressed endogenously in human breast cancer cells (T4-2, MCF-7) (from UniProt P78536 215-824) (enzyme)",reduction in AREG shedding from MCF-7 cells after siRNA knockdown of TACE,[9],90%
TGFα: recombinant EGFR ligand TGFα,proliferation of non-malignant S1 cells in place of EGF,S1 cells,can substitute for EGF to promote proliferation
"AREG: recombinant EGFR ligand Amphiregulin (protein, UniProt P15514 101-187, looked up) Amphiregulin: SVRVEQVVKPPQNKTESENTSDKPKRKKKGGKNGKNRRNRKKKNPCNAEFQNFCIHGECKYIEHLEAVTCKCQQEYFGERCGEKSMK",proliferation of non-malignant S1 cells in place of EGF,S1 cells,can substitute for EGF to promote proliferation
